This note sets out measurements from the supplement of paper PMC11061612.

What all share (assay): Bliss excess, mean over the matrix (fraction); higher = more synergy
The test system of one assay is 5637 (Bladder Carcinoma). The method in brief:
(§1)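 Cell lines grown in DMEM/F12 or RPMI with 10% FBS were plated in 1536-well plates and held 24 hours at 37°C, 5% CO2 before 72 hours of exposure to two-drug dose matrices, with DMSO typically at 0.2%. CellTiter-Glo 2.0 luminescence gave viability, which was converted to inhibition. Vehicle wells were set to 0 and blank wells to 1. Combination Emax is the second-highest inhibition in the matrix, and Bliss excess is the observed combination effect minus the expected EA + EB − EA·EB, where EA and EB are the single-agent effects.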

The subject of a further assay is A204 (Rhabdomyosarcoma). An outline of the steps: as §1
The next assay relates to AU565 (Breast Carcinoma). An outline of the steps: as §1
In assay [1] the test system is CAL-27 (Oral Cavity Carcinoma). The method in brief: as §1
Assay [2] relates to CESS (Acute Myeloid Leukemia). An outline of the steps: as §1
Assay [3] concerns EPLC-272H (Other Solid Carcinomas). An outline of the steps:
as §1

Assay [4] has as its system ESO26 (Esophageal Adenocarcinoma). An outline of the steps: as §1
A further assay has as its system EW-16 (Ewing's Sarcoma). An outline of the steps: as §1
Assay [5] deals with G-402 (Other Solid Carcinomas). An outline of the steps: as §1
Assay [6] concerns GCT (Other Solid Carcinomas). An outline of the steps:
as §1

The test system of assay [7] is HCC1428 (Breast Carcinoma). An outline of the steps: as §1
Assay [8] concerns HT55 (Colorectal Carcinoma). An outline of the steps: as §1
The subject of assay [9] is Jurkat (T-Lymphoblastic Leukemia). The method in brief:
as §1

A further assay has as its system KP-N-YN (Neuroblastoma). An outline of the steps: as §1
In assay [10] the test system is LS-411N (Colorectal Carcinoma). An outline of the steps: as §1
In another assay the test system is NB13 (Neuroblastoma). An outline of the steps: as §1
The test system of assay [11] is NCI-H2228 (Lung Adenocarcinoma). The method in brief: as §1
In assay [12] the test system is OACp4C (Esophageal Adenocarcinoma). An outline of the steps: as §1
The subject of the next assay is RH-41 (Rhabdomyosarcoma). The method in brief:
as §1

Assay [13] deals with huH-1 (Hepatocellular Carcinoma). The method in brief: as §1

Consider `CN(CCO)CC[C@H](CSc1ccccc1)Nc1ccc(S(=O)(=O)NC(=O)c2ccc(N3CCC([C@@H](O)c4ccccc4-c4ccc(Cl)cc4)CC3)cc2)cc1S(=O)(=O)C(F)(F)F` [AZD4320] + Cc1cc2ncnn2cc1Nc1ncc2c(n1)n(C1CCOCC1)c(=O)n2C [AZD7648] (first compound max 1 µM, 7x7, partner max 10 µM), for which the Bliss excess is -0.0359 in the assay with 5637 (Bladder Carcinoma); -0.0551 in the assay on A204 (Rhabdomyosarcoma); -0.0132 in the assay on AU565 (Breast Carcinoma); -0.0355 in [1]; -0.0106 in [2]; -0.0318 in assay [3]. Also, the Bliss excess was -0.0208 in assay [4]; -0.0475 in the assay on EW-16 (Ewing's Sarcoma); -0.0144 in assay [5]; -0.0504 in assay [6]; 0.025 in assay [7]; -0.0404 in assay [8]. The Bliss excess in assay [9] is 0.0134; in the assay on KP-N-YN (Neuroblastoma), -0.0238; in assay [10] it was -0.0132; with NB13 (Neuroblastoma) it was -0.0223; in assay [11] it was -0.0231; in assay [12] it was 0.0447. For the same compound, the Bliss excess with RH-41 (Rhabdomyosarcoma) is 0.0309; in assay [13], -0.0586.
Take `CN(CCO)CC[C@H](CSc1ccccc1)Nc1ccc(S(=O)(=O)NC(=O)c2ccc(N3CCC([C@@H](O)c4ccccc4-c4ccc(Cl)cc4)CC3)cc2)cc1S(=O)(=O)C(F)(F)F` [AZD4320] + Cn1cnc2c(F)c(Nc3ccc(Br)cc3Cl)c(C(=O)NOCCO)cc21 [Selumetinib] (first compound max 1 µM, 7x7, partner max 3 µM): the Bliss excess with 5637 (Bladder Carcinoma) is -0.0332; with A204 (Rhabdomyosarcoma), -0.0054; in the assay with AU565 (Breast Carcinoma) it was 0.0474; in assay [1], 0.0321; in assay [2] it was -0.0701; in assay [3] it was 0.0108. For the same compound, the Bliss excess in [4] was 0.0111; with EW-16 (Ewing's Sarcoma), 0.076; in [5], 0.0153; in assay [6], 0.0789; in assay [7] it was 0.0011; in [8], 0.0074. Further, the Bliss excess in assay [9] came out at 0.0229; with KP-N-YN (Neuroblastoma), 0.0076; in assay [10], 0.0165; with NB13 (Neuroblastoma), 0.0039; in assay [11], 0.0075; in assay [12], 0.0737. Besides, the Bliss excess with RH-41 (Rhabdomyosarcoma) was 0.0087; in [13] it was -0.0106.
Consider `COc1nnc2ccc(N3CCC(c4ccc(OCCN5CCN(C)C(=O)[C@H]5C)cc4)CC3)nn12` [AZD5153] + CN(CC[C@H](CSC1=CC=CC=C1)NC2=C(C=C(C=C2)S(=O)(=O)NC(=O)C3=CC=C(C=C3)N4CCC(CC4)[C@H](C5=CC=CC=C5C6=CC=C(C=C6)Cl)O)S(=O)(=O)C(F)(F)F)CCO [AZD4320] (first compound max 1 µM, 7x7, partner max 1 µM), for which the Bliss excess was 0.122 in the assay on 5637 (Bladder Carcinoma); 0.0084 in the assay on A204 (Rhabdomyosarcoma); 0.0811 in the assay with AU565 (Breast Carcinoma); 0.0151 in [1]; 0.0356 in assay [2]; -0.04 in [3]. Besides, the Bliss excess in [4] was 0.0233; in the assay with EW-16 (Ewing's Sarcoma), 0.0851; in assay [5], 0.0157; in assay [6], 0.0204; in [7], 0.0114; in assay [8], -0.0021. Further, the Bliss excess in [9] is 0.041; in assay [10] it was 0.0969; in assay [11], 0.0351; in assay [12] it was -0.0404; in the assay on RH-41 (Rhabdomyosarcoma), 0.0427; in [13], -0.0206.
Regarding `Cc1cc2ncnn2cc1Nc1ncc2c(n1)n(C1CCOCC1)c(=O)n2C` [AZD7648] + C=CCn1c(=O)c2cnc(Nc3ccc(N4CCN(C)CC4)cc3)nc2n1-c1cccc(C(C)(C)O)n1 [AZD1775] (first compound max 10 µM, partner max 1 µM), the Bliss excess with 5637 (Bladder Carcinoma) is 0.0026; in the assay with A204 (Rhabdomyosarcoma) it was -0.0041; in the assay on AU565 (Breast Carcinoma) it was -0.043; in assay [1], 0.0108; in assay [2], 0.028; in [3] it was 0.0042. Moreover, the Bliss excess in [4] was -0.0641; in the assay on EW-16 (Ewing's Sarcoma), -0.0471; in [5] it was 0.0111; in assay [6], -0.0309; in assay [7] it was 0.0179; in assay [8], -0.0027. Further, the Bliss excess in assay [9] is 0.0183; with KP-N-YN (Neuroblastoma), -0.0428; in [10], -0.0318; in the assay with NB13 (Neuroblastoma), -0.0531; in assay [11] it was 0.0384; in assay [12] it was -0.0303. Further, the Bliss excess in the assay on RH-41 (Rhabdomyosarcoma) is 0.0157; in assay [13], 0.0313.
`CC(=O)c1c(C)c2cnc(Nc3ccc(N4CCNCC4)cn3)nc2n(C2CCCC2)c1=O` [Palbociclib] + CN(CC[C@H](CSC1=CC=CC=C1)NC2=C(C=C(C=C2)S(=O)(=O)NC(=O)C3=CC=C(C=C3)N4CCC(CC4)[C@H](C5=CC=CC=C5C6=CC=C(C=C6)Cl)O)S(=O)(=O)C(F)(F)F)CCO [AZD4320] (first compound max 10 µM, 7x7, partner max 1 µM): the Bliss excess was -0.0373 in the assay on 5637 (Bladder Carcinoma); -0.0397 with A204 (Rhabdomyosarcoma); -0.0375 in the assay on AU565 (Breast Carcinoma); -0.0667 in assay [1]; -0.0225 in [2]; -0.0283 in assay [3]. Also, the Bliss excess in assay [4] was -0.0562; in the assay on EW-16 (Ewing's Sarcoma), -0.127; in [5], -0.0503; in assay [6], -0.0137; in assay [7], -0.082; in assay [8], -0.043. The Bliss excess was -0.0316 in [9]; -0.0089 in assay [10]; -0.0627 in [11]; -0.144 in assay [12]; 0.0142 in the assay with RH-41 (Rhabdomyosarcoma); -0.0294 in [13].
For the compound `C[C@@H](c1ccc2nccn2c1)n1nnc2ncc(-c3cnn(C)c3)nc21` [Savolitinib] + CN(CC[C@H](CSC1=CC=CC=C1)NC2=C(C=C(C=C2)S(=O)(=O)NC(=O)C3=CC=C(C=C3)N4CCC(CC4)[C@H](C5=CC=CC=C5C6=CC=C(C=C6)Cl)O)S(=O)(=O)C(F)(F)F)CCO [AZD4320] (first compound max 1 µM, 7x7, partner max 1 µM), the Bliss excess in the assay with 5637 (Bladder Carcinoma) was -0.057; in the assay on A204 (Rhabdomyosarcoma), -0.0484; in the assay with AU565 (Breast Carcinoma), 0.0022; in [1], -0.0514; in [2], -0.001; in assay [3] it was -0.0701. Also, the Bliss excess in [4] was -0.0467; in the assay with EW-16 (Ewing's Sarcoma), -0.0994; in assay [5], -0.0639; in assay [6], -0.0527; in [7], -0.0206; in assay [8], -0.0439. The Bliss excess was -0.0638 in assay [9]; -0.0069 in assay [10]; -0.0527 in assay [11]; -0.0291 in [12]; -0.0093 in the assay on RH-41 (Rhabdomyosarcoma); -0.0456 in assay [13].
